Measured values reported in the METLIN SMRT retention time set (Domingo-Almenara et al. 2019).

Assay: gradient 5% acetonitrile 3 min, to 50% in 2 min, to 85% in 15 min, held 3 min, 100 µL/min
Details: column: Zorbax Extend-C18 2.1 x 50 mm; eluents: water / acetonitrile, 0.1% formic acid
Procedure, shortened: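 Standards, all pure, were combined into mixtures of ~100 molecules and run at 100 μL/min on a Zorbax Extend-C18 column (2.1 × 50 mm, 1.8 μm) with water and acetonitrile, each containing 0.1% formic acid. A coupled quadrupole time-of-flight mass spectrometer operated in positive and negative ionization mode. Retention time values come from computationally picked adduct peaks, each inspected manually.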

Cc1ccn2cc(C(=O)NCCCN3CCCC3=O)nc2c1
RP-LC retention time: 535 s

CC(C)CCNC(=O)c1ccc2c(=O)n(-c3ccc(F)cc3)c(N3CCCC3)nc2c1
RP-LC retention time: 912 s

Brc1cccc(-c2nn3c(-c4ccccn4)nnc3s2)c1
RP-LC retention time: 860 s

COc1cccc(-n2cc(C(=O)O)nn2)c1
RP-LC retention time: 682 s

CSc1ccc(-c2noc(-c3nn(-c4cccc(Br)c4)ccc3=O)n2)cc1
RP-LC retention time: 988 s

Cc1ccc(Cn2nnc(C(=O)N3CCSCC3)c2-n2cccc2)cc1
RP-LC retention time: 956 s

COc1ccc(S(=O)(=O)N2CC3CN(C(=O)c4cccc(F)c4)CC(C2)O3)cc1
RP-LC retention time: 794 s

CCOc1ccccc1-c1nc(-c2cn(Cc3ccc(F)cc3)nn2)no1
RP-LC retention time: 1020 s

Cc1ccc(C)c(NC(=O)CN2C(=O)CCCc3cc(S(=O)(=O)N4CCCC4)ccc32)c1
RP-LC retention time: 918 s

CC(C)Cc1noc(C2(F)CCN(S(=O)(=O)c3ccc(C(C)(C)C)cc3)CC2)n1
RP-LC retention time: 601 s

Cc1oc(-c2ccc(NC(=O)c3cccs3)cc2)nc1Cn1cccn1
RP-LC retention time: 836 s

Cc1cc2nn(CC(=O)NC3CCCCC3)c(=O)n2c(-c2ccccc2)n1
RP-LC retention time: 764 s

COc1ccc(OC)c(NC(=O)Cn2ncc3c(c2=O)N(C2CC2)C(=O)CS3)c1
RP-LC retention time: 724 s

O=C(Nc1ccc2c(c1)OCO2)N1CCN(c2nc3cccnc3n(Cc3ccccc3)c2=O)CC1
RP-LC retention time: 1010 s

Cn1nnnc1C1CCCN(C(=O)C2CC2)C1 (stereo not given)
RP-LC retention time: 605 s

CCc1noc(NC(C)=O)c1-c1ccc(C)c(S(=O)(=O)Nc2cc(Cl)ccc2OC)c1
RP-LC retention time: 872 s

CCOC(=O)C(=O)Nc1cccc(F)c1
RP-LC retention time: 723 s

COc1ccc(OC)c(NC(=O)NC2CCN(c3ccc(C)cc3)C2=O)c1 (stereo not given)
RP-LC retention time: 837 s

COCCCNC(=O)C1c2ccccc2C(=O)N(Cc2ccccc2)C12CCCC2 (stereo not given)
RP-LC retention time: 846 s

COc1cccc(-c2nc(C3CCN(S(=O)(=O)c4c(C)cc(C)cc4C)CC3)no2)c1
RP-LC retention time: 1320 s

COc1cc(-c2ccccc2)nc2ccc(NC(=O)COc3ccc(F)cc3)cc12
RP-LC retention time: 776 s

COc1ccccc1-c1[nH]ncc1CN1CCC2(CC1)CC(O)CCO2 (stereo not given)
RP-LC retention time: 561 s

CCNC(=O)C1CCCN(c2nc3ncn(CC(=O)NCc4ccccc4Cl)c(=O)c3s2)C1 (stereo not given)
RP-LC retention time: 670 s

Cc1cc(=O)n(CC(=O)N(C)c2ccccc2)c(N2CCCC2)n1
RP-LC retention time: 625 s

O=C(O)c1nnn(-c2ccc3c(c2)OCO3)c1-c1ccncc1
RP-LC retention time: 612 s

Cc1nc2cc(-c3noc(C4(c5ccccc5)CC4)n3)ccc2o1
RP-LC retention time: 1110 s

CCN(CC)CCNCc1ccc(-c2ccc(Cl)cc2)o1
RP-LC retention time: 591 s

CCOc1ccc(CC(=O)N2CCCC2c2nc(-c3ccc(OC)c(OC)c3)no2)cc1OCC (stereo not given)
RP-LC retention time: 925 s

Cn1cc(CC(=O)Nc2ccc(F)cc2)c2cccnc21
RP-LC retention time: 703 s

CCn1cc(CCN2CCN(C(=O)c3cccs3)CC2)c2cccnc21
RP-LC retention time: 589 s

Cc1ncsc1CN1CCCC(c2nc(-c3cnccn3)no2)CCNC(=O)CC1 (stereo not given)
RP-LC retention time: 577 s

O=C(CCc1nc(N2CCCCC2)c2c(-c3ccccc3)noc2n1)NC1CC1
RP-LC retention time: 909 s

COCCOc1ccc2c(n1)CCN(C(=O)NCCC(C)C)C2
RP-LC retention time: 762 s

Cc1nc(C(=O)Nc2ccc(F)cc2)c(C)o1
RP-LC retention time: 848 s

COC(=O)C1=CN(c2ccc(Cl)cc2)c2cc(F)ccc2S1(=O)=O
RP-LC retention time: 919 s

O=C(c1cnccn1)N1CCCCC1c1nncn1Cc1ccccc1 (stereo not given)
RP-LC retention time: 637 s

CCCCOc1ccc(C(=O)N2CCCC2c2nc(-c3ccccc3)no2)cc1 (stereo not given)
RP-LC retention time: 1230 s

Cc1cccc(-c2noc(Cn3cnc4c(cnn4-c4ccc(C)c(Cl)c4)c3=O)n2)c1
RP-LC retention time: 1280 s

CCOC(=O)c1cccc(NC(=O)Cn2cnc3nc(N4CCCC(C(=O)NC)C4)sc3c2=O)c1 (stereo not given)
RP-LC retention time: 678 s

Cc1cc(=O)n(CC(=O)Nc2ccc3c(c2)OCCO3)c(N2CCc3ccccc3C2)n1
RP-LC retention time: 732 s

O=C1CC(c2nc3ccccc3n2CC(O)COc2ccccc2Cl)CN1Cc1ccccc1 (stereo not given)
RP-LC retention time: 797 s

COC(=O)c1nnn(-c2ccc(C)c(C)c2)c1C(=O)OC
RP-LC retention time: 916 s

COc1ccc(C)cc1NS(=O)(=O)c1cc(-c2cc(C(F)(F)F)on2)sc1C
RP-LC retention time: 1210 s

CCn1cc(-c2nc(C(=O)NCc3ccc(F)cc3Cl)cs2)c2cccnc21
RP-LC retention time: 1070 s

O=C(Cn1ncc2c(N3CCN(c4ccccn4)CC3)ncnc21)Nc1ccc(F)c(Cl)c1
RP-LC retention time: 650 s
